This passage reports melting point results from patent US6544985B2, “Dihydro-benzo [b][1,4]diazepin-2-one derivatives” (Hoffman-La Roche Inc., priority 2001, dated 2003).

Consider `CC(C)N(C)c1cc2c(cc1C(F)(F)F)NC(=O)CC(c1ccnc(C#N)c1)=N2` [Example 172, 4-[8-(Isopropyl-methyl-amino)-4-oxo-7-trifluoromethyl-4,5-dihydro-3H-benzo[b][1,4]diazepin-2-yl]-pyridine-2-carbonitrile], for which the melting point came to 189 °C. `CCCN(C)c1cc2c(cc1Cl)NC(=O)CC(c1cccc(-c3nc(CO)co3)c1)=N2` [Example 188, 8-Chloro-4-[3-(4-hydroxymethyl-oxazol-2-yl)-phenyl]-7-(methyl-propyl-amino)-1,3-dihydro-benzo[b][1,4]diazepin-2-one] came in with a melting point of 166 to 167 °C. `CC(C)N(C)c1cc2c(cc1Cl)NC(=O)CC(c1cccc(-c3nc(CO)cs3)c1)=N2` [Example 185, 8-Chloro-4-[3-(4-hydroxymethyl-thiazol-2-yl)-phenyl]-7-(isopropyl-methyl-amino)-1,3-dihydro-benzo[b][1,4]diazepin-2-one] registered a melting point of 193 to 195 °C. To `CC(C)CNc1cc2c(cc1Cl)NC(=O)CC(c1cccc(-n3ccnc3)c1)=N2` [Example 178, 8-Chloro-4-(3-imidazol-1-yl-phenyl)-7-isobutylamino-1,3-dihydro-benzo[b][1,4]diazepin-2-one] belongs 212 °C; to `Cc1cc2c(cc1N(C)C)N=C(c1cccc(C#N)c1)CC(=O)N2` [Example 89, 3-(8-Dimethylamino-7-methyl-4-oxo-4,5-dihydro-3H-benzo[b][1,4]diazepin-2-yl)-benzonitrile], 257 °C; to `CN(C)c1cc2c(cc1C#Cc1ccccc1)NC(=O)CC(c1cccc(-n3ccnn3)c1)=N2` [Example 5, 7-Dimethylamino-8-phenylethynyl-4-(3-[1,2,3]triazol-1-yl-phenyl)-1,3-dihydro-benzo[b][1,4]diazepin-2-one], 185 to 186 °C. Under `CCCN(C)c1cc2c(cc1Cl)NC(=O)CC(c1cccc(-n3ncnc3CO)c1)=N2` [Example 162, 8-Chloro-7-(methyl-propyl-amino)-4-[3-(5-hydroxymethyl-[1,2,4]triazol-1-yl)-phenyl]-1,3-dihydro-benzo[b][1,4]diazepin-2-one] stands 192 °C; under `CN(C)c1cc2c(cc1Cl)NC(=O)CC(c1cccc(-c3cc(CO)no3)c1)=N2` [Example 31, 8-Chloro-7-dimethylamino-4-[3-(3-hydroxymethyl-isoxazol-5-yl)-phenyl]-1,3-dihydro-benzo[b][1,4]diazepin-2-one], 132 °C. `Cc1cc(-c2cccc(C3=Nc4cc(N(C)CC(C)C)c(C)cc4NC(=O)C3)c2)on1` [Example 134, 7-(Isobutyl-methyl-amino)-8-methyl-4-[3-(3-methyl-isoxazol-5-yl)-phenyl]-1,3-dihydro-benzo[b][1,4]diazepin-2-one]: the melting point came out at 187 °C. Under `CN(C)c1cc2c(cc1C(F)(F)F)NC(=O)CC(c1cccc(-c3c(CO)cnn3C)c1)=N2` [Example 72, 7-Dimethylamino-4-[3-(4-hydroxymethyl-2-methyl-2H-pyrazol-3-yl)-phenyl]-8-trifluoromethyl-1,3-dihydro-benzo[b][1,4]diazepin-2-one] stands 243 to 244 °C. To `CC(C)CNc1cc2c(cc1C(F)(F)F)NC(=O)CC(c1cccc(-n3ccnn3)c1)=N2` [Example 180, 7-(Isobutyl-amino)-4-(3-[1,2,3]triazol-1-yl-phenyl)-8-trifluoromethyl-1,3-dihydro-benzo[b][1,4]diazepin-2-one] belongs 212 °C; to `CCCN(C)c1cc2c(cc1C(F)(F)F)NC(=O)CC(c1cccc(-n3ccnn3)c1)=N2` [Example 170, 7-(Methyl-propyl-amino)-4-(3-[1,2,3]triazol-1-yl-phenyl)-8-trifluoromethyl-1,3-dihydro-benzo[b][1,4]diazepin-2-one], 147 °C. To `CCCN(C)c1cc2c(cc1C)NC(=O)CC(c1cccc(-c3nc(CO)co3)c1)=N2` [Example 200, 4-[3-(4-Hydroxymethyl-oxazol-2-yl)-phenyl]-8-methyl-7-(methyl-propyl-amino)-1,3-dihydro-benzo[b][1,4]diazepin-2-one] belongs 200 to 202 °C; to `CN(C)c1cc2c(cc1C(F)(F)F)NC(=O)CC(c1cccc(-n3nncc3CCO)c1)=N2` [Example 85, 7-Dimethylamino-4-{3-[5-(2-hydroxy-ethyl)-[1,2,3]triazol-1-yl]-phenyl}-8-trifluoromethyl-1,3-dihydro-benzo[b][1,4]diazepin-2-one], 172 to 175 °C.

Turning to `CC(C)N(C)c1cc2c(cc1C(F)(F)F)NC(=O)CC(c1cccc(-n3nncc3CNCC3CC3)c1)=N2` [Example 153, 4-(3-{5-[(Cyclopropylmethyl-amino)-methyl]-[1,2,3]triazol-1-yl}-phenyl)-7-(isopropyl-methyl-amino)-8-trifluoromethyl-1,3-dihydro-benzo[b][1,4]diazepin-2-one], the melting point is 152 °C.

On to `Cc1cc(-c2cccc(C3=Nc4cc(NC(C)C)c(Cl)cc4NC(=O)C3)c2)on1` [Example 160, 8-Chloro-7-isopropylamino-4-[3-(3-methyl-isoxazol-5-yl)-phenyl]-1,3-dihydro-benzo[b][1,4]diazepin-2-one], for which the melting point came out at 225 °C. `CC(C)N(C)c1cc2c(cc1C(F)(F)F)NC(=O)CC(c1cccc(-n3nncc3CO)c1)=N2` [Example 119, 4-[3-(5-Hydroxymethyl-[1,2,3]triazol-1-yl)-phenyl]-7-(isopropyl-methyl-amino)-8-trifluoromethyl-1,3-dihydro-benzo[b][1,4]diazepin-2-one] showed a melting point of 234 °C.

For the molecule `CN(C)c1cc2c(cc1C(F)(F)F)NC(=O)CC(c1cccc(-c3cc(CO)on3)c1)=N2` [Example 51, 7-Dimethylamino-4-[3-(5-hydroxymethyl-isoxazol-3-yl)-phenyl]-8-trifluoromethyl-1,3-dihydro-benzo[b][1,4]diazepin-2-one], the melting point is 211 °C (dec.). To `Cc1cc2c(cc1N(C)CC(C)C)N=C(c1cccc(-n3nncc3CO)c1)CC(=O)N2` [Example 132, 4-[3-(5-Hydroxymethyl-[1,2,3]triazol-1-yl)-phenyl]-7-(isobutyl-methyl-amino)-8-methyl-1,3-dihydro-benzo[b][1,4]diazepin-2-one] belongs 198 °C; to `CC(C)c1nc(-c2cccc(C3=Nc4cc(N(C)C)c(C(F)(F)F)cc4NC(=O)C3)c2)c[nH]1` [Example 221, 7-Dimethylamino-4-[3-(2-isopropyl-1H-imidazol-4-yl)-phenyl]-8-trifluoromethyl-1,3-dihydro-benzo[b][1,4]diazepin-2-one], 150 °C (dec.). Under `Cc1noc(-c2cccc(C3=Nc4cc(N(C)C)c(C(F)(F)F)cc4NC(=O)C3)c2)c1CO` [Example 69, 7-Dimethylamino-4-[3-(4-hydroxymethyl-3-methyl-isoxazol-5-yl)-phenyl]-8-trifluoromethyl-1,3-dihydro-benzo[b][1,4]diazepin-2-one] stands 207 to 208 °C. Under `N#Cc1cc2c(cc1N1CCCC1)N=C(c1cccc(-n3nncc3CO)c1)CC(=O)N2` [Example 103, 2-[3-(5-Hydroxymethyl-[1,2,3]triazol-1-yl)-phenyl]-4-oxo-8-pyrrolidin-1-yl-4,5-dihydro-3H-benzo[b][1,4]diazepine-7-carbonitrile] stands 241 °C.
